Experimental data from ChEMBL document CHEMBL1138221, “Synthesis and evaluation of multisubstrate bicyclic pyrimidine nucleoside inhibitors of human thymidine phosphorylase” (J Med Chem, 2006).

Test: Stability in acidic buffer at pH 1.0 in 37 degC
Assay type: physicochemical
Settings: for Stability: buffer

Stability | half-life (acidic buffer) [h] | SMILES
Stable |  | Cc1cn([C@@H]2O[C@H](CO)[C@H]3C[C@H](CP(=O)(O)O)O[C@H]32)c(=O)[nH]c1=O
Stable |  | Cc1cn([C@@H]2O[C@H](CO)[C@H]3O[C@@H](CP(=O)(O)O)C[C@H]32)c(=O)[nH]c1=O
 | 98 | Cc1cn([C@@H]2O[C@H](CO)[C@H]3O[C@@H](CP(=O)(O)O)O[C@H]32)c(=O)[nH]c1=O
Stable |  | Cc1cn([C@@H]2O[C@H](CO)[C@H]3C[C@@H](CP(=O)(O)O)O[C@H]32)c(=O)[nH]c1=O
